The results in this text go back to patent US11564913B2, “Compositions and methods for treating cancer” (Children's Hospital Medical Center, priority 2019, dated 2023).

Test [1] deals with active Cdc42 in MDA-MB-231 cells. Description: Active GTPase pull-down (GST-PAK-GBD). It is filed as cell-based, human. As to conditions: 0-3 μM, 1 h. As for the experimental part: (§1) FIG. 5: Cytoskeletal changes induced by IODVA1 treatment. IODVA1 inhibits lamellipodia and circular dorsal ruffle (CDR) formation in MDA-MB-231 cells and decreases Rac activation. (A) IODVA1 inhibits EGF-induced lamellipodia formation in MDA-MB-231 cells. MDA-MB-231 cells were plated on fibronectin-coated coverslips, serum starved for 4 h, incubated with the indicated concentrations of IODVA1 for 1 h, then EGF (50 ng/mL) stimulated, fixed and stained with Phalloidin Alexa Fluor 594 (F-Actin, pseudocolored red) and DAPI (nuclei, pseudocolored blue). […] The percentage of cells with CDRs was counted as the number of cells with CDRs normalized to the total number of cells in the field. Around 150 cells were counted per condition per experiment. Cells with multiple CDRs were counted only once. […] Levels of active Rac (RacGTP, % of control), active Cdc42 (Cdc42GTP, % of control) and active RhoA (RhoAGTP, % of control) were quantified using ImageJ and ImageLab and show combined data as mean±s.e.m. from at least 3 independent experiments. […]
(§2) To confirm that IODVA1 interferes with Rac activation, applicants checked the levels of active Rac and its downstream effector PAK1/2. MDA-MB-231 cells were incubated with IODVA1 (0-3 μM) for 1 h and levels of GTP-bound active Rac were measured by GST-PAK-GBD pull-downs and quantified (FIG. 5C). […]

The test system of test [2] is active Rac (RacGTP) in MDA-MB-231 cells. Description: Active GTPase pull-down (GST-PAK-GBD). It is filed as cell-based, human. As to conditions: 0-3 μM, 1 h, dose-dependent. Here is the method:
as §1, §2

As for `OC1(c2ccccn2)N=C(Nc2nc3ccccc3[nH]2)N=C1c1ccccn1` (centres unmarked) [IODVA1, (Z)-2-((1H-benzo[d]imidazol-2-yl)imino)-4,5-di(pyridin-2-yl)-2,5-dihydro-1H-imidazol-5-ol], the “levels of active Cdc42” value in test [1] is “decreased but only at the highest IODVA1 concentration”. The “levels of active Rac” value in test [2] was “significantly decreases”.
